Data on one molecule can be found in patent US20240199538A1, “Novel Chlorhexidine Salts and Related Compositions and Methods” (Colgate-Palmolive Company, priority 2022, published 2024).

This data set can be described thus: CHG and CHG-SLS mixture aging study, CHX degradation products by GC-MS. Format: physicochemical. The following applies: aqueous 20% CHG solution, 60° C. oven. As for the experimental part:
Sample preparation for CHX degradation analysis by using GCMS analysis: Both aged solutions are taken from the 60° C.oven. They are diluted at 1:3.5 ratios with methanol. Both solutions are filtrated with a 0.20 um PTFE filter, respectively, then they are diluted again at a 1:10 dilution ratio with methanol and then transferred into a ROBO autosampler vials for GC-MS analysis. The gas chromatography system 6890N with 5972 MS detector plus Gerstel MPS-2 autosampler (Agilenet Technologies, Santa, Clara, CA, USA) is used for detection of CHX degradation products. Separation is accomplished using GC column of HP-5MS (30 m×0.25 mm×0.25 um, length×inside diameter×film thickness, Agilent Technologies). The 1 μL sample is injected with the splitless mode. The oven temperature is initially held at 80° C.for 1 min. Thereafter the temperature is raised at 6° C./min until 300° C.and held for 2.33 min. Total running time is 40 minutes. Helium is used as the carrier gas and delivered at a constant flow rate at 1 mL/min (the pressure at 9.38 psi and velocity at 37 cm/sec). The injector temperature is set at 250° C. and the interface temperature between GC oven and MS detector is250° C. […]

For `N=C(NCCCCCCNC(=N)NC(=N)Nc1ccc(Cl)cc1)NC(=N)Nc1ccc(Cl)cc1.O=C(O)[C@H](O)[C@@H](O)[C@H](O)[C@H](O)CO.O=C(O)[C@H](O)[C@@H](O)[C@H](O)[C@H](O)CO` [CHG, chlorhexidine gluconate], the “Peak integration for CHX degradation product at 3 weeks” value (3 weeks) worked out at 523490. Moreover, under “6 weeks”, the “Peak integration for CHX degradation product at 6 weeks” value was 7560037.
